{
  "source": "patent US20080171660A1",
  "about": "“Method of Controlling Weeds” (priority 2005, published 2008)",
  "key": {"Wild mustard (SINAR)": {"tested_on": "Wild mustard (SINAR)", "assay": "Field test, weed control, post-emergence, 15 DAT (Example 1)", "assay_type": "in vivo", "settings": "use rate I.7 12.5 g/ha, tribenuron-methyl 10 g/ha", "text": "(§1) The phenyluracils I and/or the other active ingredients according to the present invention were formulated in a suitable way, either separately or in mixture, e.g. as emulsifiable concentrates (EC), soluble concentrates (SL), suspo-emulsions (SE), suspension concentrates (SC) or water-dispersible granules (WG). The formulation(s) were suspended or emulsified in water as a distribution medium immediately prior to spraying. Afterwards, the aqueous mixture was evenly sprayed on the test plots by means of finely distributing nozzles.\n(§2) The test plots were of uniform size (typically between 14 and 37 square meters, each) and the distribution of treated and untreated plots was organized according to a randomised bloc design. Crops were sown in rows at a season which was typical for the region and the crop according to usual farm practice. Weeds were not sown but germinated according to the natural infestation.\n(§3) For pre-plant and pre-plant burn-down treatments, the plots were treated before the crop was planted, typically 7 to 28 days prior to planting. For pre-emergence treatments, the plots were treated at planting (plus or minus two days) but before emergence. For post-emergence or in-crop treatments, the plots were treated after the emergence of the weed or crop, typically 20 to 50 days after planting. […]"}, "Curly dock (RUMCR)": {"tested_on": "Curly dock (RUMCR)", "assay": "Field test, weed control, post-emergence, 15 DAT (Example 1)", "assay_type": "in vivo", "settings": "use rate I.7 12.5 g/ha, tribenuron-methyl 10 g/ha", "text": "as §1, §2, §3"}},
  "data": [
    {"smiles": "COC(=O)c1ccccc1S(=O)(=O)NC(=O)N(C)c1nc(C)nc(OC)n1", "note": "[tribenuron-methyl]", "values": [
      {"measurement": "Weed control (% control) Wild mustard (SINAR) Found", "setting": "Wild mustard (SINAR)", "result": 100, "unit": "% control"},
      {"measurement": "Weed control (% control) Curly dock (RUMCR) Found", "setting": "Curly dock (RUMCR)", "result": 40, "unit": "% control"}
    ]}
  ]
}
